# Literature values in patent publication US20150306111A1 (priority 2012, published 2015).
# “Also recorded” adds a separate entry of the source. Read-outs that look alike come from different tables or passages of the source.
# Assays:
# [1] = system: asthma patients with seasonal allergic rhinitis and nasal congestion; settings: daily dose of 5 mg, 331 patients
smiles,measurement,setting,value
Clc1ccc2c(c1)CCc1cccnc1C2=C1CCNCC1 [desloratadine],Effect on symptoms compared with placebo,[1],"effective in reducing overall symptoms, the symptoms of asthma and the symptoms of nasal congestion"
same,Solubility in ethyl alcohol,ethyl alcohol,very soluble in ethyl alcohol
same,Solubility in propylene glycol,propylene glycol,moderately soluble in propylene glycol
same,Solubility in water,,practically insoluble in water; also recorded: low solubility in water
same,Solubility in water,listed as Desloratadine,poorly soluble in water
